US8426429B2, “2-amino-quinazoline derivatives useful as inhibitors of β-secretase (BACE)” (Jansssen Pharmaceutica N.V., priority 2004, dated 2013)
Values joined by “and” are separate entries in the source; they are usually repeats but may differ in a detail not shown here. Equal values may be shown once.

How the values were obtained:
Format in all cases: biochemical
β-secretase (BACE) [1] = target: T1, β-secretase (BACE) (Homo sapiens, UniProt P56817); test: BACE Assay-1 (MCA-substrate, IC50); settings: procedure of Example 158
T1 construct: purchased Panvera
Description: The following standards are reagents were used in this assay: Sodium Citrate trisodium salt dihydrate (Sigma), Citric Acid monohydrate (Merck), PEG8000 (Sigma), MCA-substrate (Bachem), β-secretase (BACE) (Panvera), 96-well plate zwart (Costar (Elscolab)), StatVal (Bachem).
The following standard assay buffer solution was prepared and used in this assay: 0.05 M, pH 5.0 mixture of sodium citrate trisodium salt dihydrate (9.56 g), citric acid monohydrate (3.68 g) and PEG8000 (0.50 g).
The MCA-substrate stock solution was prepared by mixing 10 mg MCA-substrate with 5 mL DMSO for a final solution concentration of 2.0 mg/mL. The substrate work solution was prepared by mixing 0.1 mL substrate in 1.90 mL assay buffer for a final concentration of 0.05 mM. The β-secretase (BACE) work solution was prepared by mixing 8 μL BACE in 2 mL assay buffer for a final concentration of 10 µg/mL.
The screen procedure for this assay was as follows. 60 μL of assay buffer was pippeted into each well of a 96-well plate. To each well was then pipetted 1 μL of test compound at the selected concentration. To each well was then added 20 μL of the β-secretase work solution and […] of the MCA-substrate stock solution.
The procedure for the blank was as follows. 80 μL of assay buffer was pipetted into each well to be used as a blank control. To each well was then added 1 μL of DMSO and 20 μL of MCA-substrate solution in each well.
The procedure for the positive control was as follows. 60 μL of assay buffer was pipetted into each well to be used as a positive control. To each well was then added 1 μL of DMSO, 20 μL of BACE work solution and 20 μL of MCA-substrate stock solution.
For test compounds, measured at multiple concentrations, the measured T0 and T60 values were used to calculate an IC50 value using Graphpad Software (or PIR).

β-secretase (BACE) [2] = target: T1, β-secretase (BACE); test: BACE Assay-2 (FS1 substrate, IC50 and Ki); settings: procedure of Example 159, FS1 substrate
Description: (§1) The FS1-substrate stock solution was prepared in DMSO as a 10 mg/mL solution. The FS1-substrate working solution was prepared by diluting the 10 mg/mL stock solution with substrate assay buffer to a final concentration of […]. The β-secretase (BACE) working solution was prepared by diluting a 0.83 mg/mL BACE stock solution with enzyme assay buffer to a final concentration of 4 μg/mL.
Test compounds were dissolved in DMSO at 10 mM.
(§2) The procedure for this assay was as follows: 15 μL of BACE working solution was pipetted into each well of a 96-well plate. To each well was then pipetted 2 μL of test compound at the selected concentration. Test compound and BACE were then mixed with a pipettor and incubated for 20 min at room temperature. To each well was then added 10 μL of the FS1 substrate working solution.
(§3) The procedure for the positive control was as follows:15 μL of BACE working solution was pipetted into each well to be used as a positive control. To each well was then pipetted 2 μL of vehicle. Vehicle and BACE were then mixed with a pipettor and incubated for 20 min at room temperature. To each well was then added 10 μL of the FS1 substrate working solution.
For test compounds, measured at multiple concentrations, the measured T0 and T60 values were used to calculate an IC50 value using Graphpad Software (or PIR). For test compounds, Ki inhibition was determined as follows: For each compound concentration and positive control, rate of cleavage of substrate (Vi, where i=compound concentration in μM) was determined as Δ Fluorescence/Δ time (min). Cleavage rates (Vi) were plotted as a function of inhibitor concentration in μM [I]. The Ki was then determined by fitting the following equation to the graph of [I] vs Vi Y=aVmax/(50+24*(1+X/Ki)),

β-secretase (BACE) [3] = target: T1, β-secretase (BACE); test: BACE % Inhibition Assay ((Aedens)-[…]-(Dabcyl K-amide) substrate); settings: % error ±10%; for inhibition at 3 µM: 3 μM compound; for inhibition at 10 µM: 10 μM compound
Description: as §1, with “substrate” for “FS1-substrate”
Test compounds were dissolved in DMSO to 10 mM.
as §2, with “The screening” for “The”, “the” for “the FS1”, “solution. The plates were then incubated for 1 hour at room temperature.” for “solution.”
The procedure for the blank was as follows. 15 μL of assay buffer was pipetted into each well to be used as a blank control. To each well was then added 2 μL of vehicle and 10 μL of substrate working solution. The plates were then incubated for 1 hour at room temperature.
as §3, with “follows: 15 μl” for “follows:15 μL”, “the” for “the FS1”, “solution. The plates were the incubated for 1 hour at room temperature.” for “solution.”
For test compounds, % inhibition was determined at each concentration as follows: […]

β-secretase (BACE) [4] = target: T1, β-secretase (BACE); test: BACE FS1 % Inhibition Assay; settings: read-out: % Inhibition (FS)
How it was run: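 Percent inhibition per compound concentration was referenced to vehicle-treated enzyme and no-enzyme wells. Enzyme at a 4 μg/mL working stock plus compound was mixed for 20 min at room temperature before the FS1 substrate (300 μg/mL working stock) was added for a 1 h room-temperature reaction.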

T1 sequence (P56817 46-501): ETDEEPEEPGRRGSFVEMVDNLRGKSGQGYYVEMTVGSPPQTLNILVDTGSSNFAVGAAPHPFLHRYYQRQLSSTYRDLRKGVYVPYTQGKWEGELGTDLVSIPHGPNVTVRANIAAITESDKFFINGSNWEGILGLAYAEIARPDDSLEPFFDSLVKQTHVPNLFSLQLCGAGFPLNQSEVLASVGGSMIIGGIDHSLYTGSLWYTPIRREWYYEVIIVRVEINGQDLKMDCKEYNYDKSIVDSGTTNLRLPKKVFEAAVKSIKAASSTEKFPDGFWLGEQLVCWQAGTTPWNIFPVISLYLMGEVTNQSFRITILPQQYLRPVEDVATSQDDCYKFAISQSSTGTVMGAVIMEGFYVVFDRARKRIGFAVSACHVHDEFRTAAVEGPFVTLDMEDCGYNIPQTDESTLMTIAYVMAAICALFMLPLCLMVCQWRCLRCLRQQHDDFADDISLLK

SMILES: CN(C(=O)CCCN1Cc2cc(C(=O)c3ccccc3)ccc2N=C1N)C1CCCCC1 [Compound 10]
- IC50 (β-secretase (BACE) [1]): 3.7 µM

SMILES: CCCN1Cc2cc(Oc3cccc(NC(=O)C4CCCCC4)c3)ccc2N=C1N [Compound 44]
- IC50 (β-secretase (BACE) [1]): 6.1 µM
- Ki (β-secretase (BACE) [2]): 3.3 µM
- inhibition at 3 µM (β-secretase (BACE) [3]): < 30%
- inhibition at 10 µM (β-secretase (BACE) [3]): 31%

SMILES: CCCN1Cc2cc(Oc3cccc(N(C#N)CC4CCCCC4)c3)ccc2N=C1N [Compound 56]
- IC50 (β-secretase (BACE) [1]): 0.97 µM
- IC50 (β-secretase (BACE) [2]): 5.4 µM
- Ki (β-secretase (BACE) [2]): 0.77 µM
- inhibition at 3 µM (β-secretase (BACE) [3]): 35%
- inhibition at 10 µM (β-secretase (BACE) [3]): 79%

SMILES: CCCC(CCC(=O)N(C)C1CCCCC1)N1Cc2cc(Oc3ccccc3)ccc2N=C1N (stereo not drawn) [Compound 86]
- IC50 (β-secretase (BACE) [1]): 0.048 µM
- Ki (β-secretase (BACE) [2]): 0.13 µM
- inhibition at 3 µM (β-secretase (BACE) [3]): 72%
- inhibition at 10 µM (β-secretase (BACE) [3]): 80%

SMILES: CN(C(=O)CC(CC(=O)N(C)C1CCCCC1)N1Cc2cc(Oc3ccccc3)ccc2N=C1N)C1CCCCC1 [Compound 107, 3-(2-Amino-6-phenoxy-4H-quinazolin-3-yl)-pentanedioic acid bis-(cyclohexyl-methyl-amide)]
- IC50 (β-secretase (BACE) [1]): 0.82 µM
- IC50 (β-secretase (BACE) [2]): 4.58 µM
- Ki (β-secretase (BACE) [2]): 1.2 µM
- inhibition at 3 µM (β-secretase (BACE) [3]): 48%
- inhibition at 10 µM (β-secretase (BACE) [3]): 78%

SMILES: NC1=Nc2ccc(Oc3cccc(NS(=O)(=O)c4ccccc4)c3)cc2CN1CCCCC(=O)N(C1CCCCC1)C1CCCCC1 [Compound 113]
- IC50 (β-secretase (BACE) [1]): 0.99 µM

SMILES: CCCN1Cc2cc(Oc3cccc(CNS(=O)(=O)c4ccccc4)c3)ccc2N=C1N [Compound 225]
- IC50 (β-secretase (BACE) [1]): 2.9 µM

SMILES: NC1=Nc2ccc(Oc3ccccc3)cc2CN1C(CNC(=O)C1CCCC1)C1CCCCC1 (stereo not drawn) [Compound 295]
- IC50 (β-secretase (BACE) [1]): 0.016 µM
- Ki (β-secretase (BACE) [2]): 0.03 µM
- inhibition at 0.3 µM (β-secretase (BACE) [4]; 0.3 μM test compound): 79%
- inhibition at 1 µM (β-secretase (BACE) [4]; 1 μM test compound): 106%
- inhibition at 3 µM (β-secretase (BACE) [4]; 3 μM test compound): 116%

SMILES: CCCN1Cc2cc(Oc3cccc(CNCc4cccc(O)c4)c3)ccc2N=C1N [Compound 305]
- IC50 (β-secretase (BACE) [1]): 1.4 µM

SMILES: CSc1ccccc1-c1ccc2c(c1)CN(Cc1cccc(C(=O)N(C)C3CCCCC3)c1)C(N)=N2 [Compound 322]
- IC50 (β-secretase (BACE) [1]): 0.14 µM
- Ki (β-secretase (BACE) [2]): 0.29 µM
- inhibition at 0.3 µM (β-secretase (BACE) [4]; 0.3 μM test compound): < 30%
- inhibition at 1 µM (β-secretase (BACE) [4]; 1 μM test compound): < 30%
- inhibition at 3 µM (β-secretase (BACE) [4]; 3 μM test compound): 95%

SMILES: CCCN1Cc2cc(Oc3cccc(CNCc4ccccc4OC)c3)ccc2N=C1N [Compound 335]
- IC50 (β-secretase (BACE) [1]): 0.24 µM

SMILES: CCCN1Cc2cc(Oc3cccc(CNCc4c(OC)cccc4OC)c3)ccc2N=C1N [Compound 340]
- IC50 (β-secretase (BACE) [1]): 2 µM

SMILES: CCCN1Cc2cc(Oc3cccc(CNCc4c(C)cc(C)cc4C)c3)ccc2N=C1N [Compound 344]
- IC50 (β-secretase (BACE) [1]): 0.058 µM

SMILES: CC(C)CCC(=O)NCC(C1CCCCC1)N1Cc2cc(Oc3ccccc3)ccc2N=C1N (stereo not drawn) [Compound 388]
- Ki (β-secretase (BACE) [2]): 0.063 µM
- inhibition at 0.3 µM (β-secretase (BACE) [3]; 0.3 μM compound): 107%
- inhibition at 1 µM (β-secretase (BACE) [3]; 1 μM compound): 119%
- inhibition at 3 µM (β-secretase (BACE) [3]): 119%

SMILES: CCCN1Cc2cc(Oc3cccc(CNCCCc4ccccc4)c3)ccc2N=C1N [Compound 430]
- IC50 (β-secretase (BACE) [1]): 2.8 µM

SMILES: CCCN1Cc2cc(Oc3cccc(CN(C)Cc4c(C)cc(C)cc4C)c3)ccc2N=C1N [Compound 464]
- IC50 (β-secretase (BACE) [1]): 1.3 µM

SMILES: NC1=Nc2ccc(Oc3ccccc3)cc2CN1[C@H](CNC(=O)C1CCCCC1)C1CCCCC1 [Compound 484]
- IC50 (β-secretase (BACE) [1]): 1.1 µM
- Ki (β-secretase (BACE) [2]): 0.74 µM
- inhibition at 0.3 µM (β-secretase (BACE) [4]; 0.3 μM test compound): < 30%
- inhibition at 1 µM (β-secretase (BACE) [4]; 1 μM test compound): < 30%
- inhibition at 3 µM (β-secretase (BACE) [4]; 3 μM test compound): 62%

SMILES: COc1ccccc1-c1ccc2c(c1)CN([C@@H](CCC(=O)N(C)C1CCCCC1)C1CCCCC1)C(N)=N2 [Compound 506]
- IC50 (β-secretase (BACE) [1]): 0.03 µM
- Ki (β-secretase (BACE) [2]): 0.018 µM and 0.0075 µM
- inhibition at 0.3 µM (β-secretase (BACE) [4]; 0.3 μM test compound): 106%
- inhibition at 1 µM (β-secretase (BACE) [4]; 1 μM test compound): 115%
- inhibition at 3 µM (β-secretase (BACE) [4]; 3 μM test compound): 128%

SMILES: CCCN1Cc2cc(Oc3cccc(CNC(=O)c4c(C)cc(C)cc4C)c3)ccc2N=C1N [Compound 533]
- IC50 (β-secretase (BACE) [1]): 0.17 µM

SMILES: CN(CCCCC(=O)O)C(=O)CC[C@@H](C1CCCCC1)N1Cc2cc(Oc3ccccc3)ccc2N=C1N [Compound 752]
- Ki (β-secretase (BACE) [2]): 0.221 µM
- inhibition at 0.3 µM (β-secretase (BACE) [4]; 0.3 μM compound, FS1 substrate): 45%
- inhibition at 1 µM (β-secretase (BACE) [4]; 1 μM compound, FS1 substrate): 81%
- inhibition at 3 µM (β-secretase (BACE) [4]; 3 μM compound, FS1 substrate): 109%

SMILES: CN(C(=O)CCC(C1CCCCC1)N1Cc2cc(Oc3ccccc3)ccc2N=C1N)C(COCc1ccccc1)C(=O)O (stereo not drawn) [Compound 781]
- Ki (β-secretase (BACE) [2]): 0.038 µM
- inhibition at 0.3 µM (β-secretase (BACE) [4]; 0.3 μM compound, FS1 substrate): 106%
- inhibition at 1 µM (β-secretase (BACE) [4]; 1 μM compound, FS1 substrate): 109%
- inhibition at 3 µM (β-secretase (BACE) [4]; 3 μM compound, FS1 substrate): 121%
